For the first data set, the target named is SARS-CoV-2 PL^pro (Severe acute respiratory syndrome coronavirus 2, UniProt P0DTD1). As to the kind of experiment: biochemical.
Conditions: not given
In kind it is biochemical.
For `COc1ccc(Cl)c(CN(C)[C@H](C)c2cccc3ccccc23)c1` [Jun9-26-5], the IC50 was > 20 µM.

On to `C[C@H](c1ccc(Cl)cc1)N(C)Cc1cc(O)ccc1Cl` [Jun9-13-4], for which the IC50 was > 20 µM.

As to `C[C@H](c1cccc2ccccc12)N(C)Cc1cnccn1` [ZX-136-9], the 50% inhibitory concentration (IC50) is > 20 µM.

Turning to `CCN(Cc1cc(O)ccc1Cl)c1cccc(C)c1C` [Jun9-13-5], the IC50 was > 20 µM.

For `Oc1ccc(Cl)c(CN2CCc3ccccc3C2)c1` [Jun9-44-5], the IC50 is > 20 µM.

Regarding `CN(Cc1cc(O)ccc1Cl)Cc1c(Cl)cccc1Cl` [Jun9-29-4], the IC50 is > 20 µM.

For the compound `Cc1ccccc1CN(C)Cc1cc(O)ccc1Cl` [Jun9-26-2], the IC50 is > 20 µM.

`C[C@H](c1cccc2ccccc12)N(C)Cc1ccc(O)cc1Cl` [Jun9-87-3]: the “SARS-CoV-2 PL^pro inhibition, in words” value is on record as “highly potent”.

Take `CC1CCCCC1N(C)Cc1cc(O)ccc1Cl` (stereo not shown) [Jun9-29-1]: the half-maximal inhibitory concentration (IC50) was > 20 µM.

Turning to `Cc1cc(O)ccc1CN(C)[C@H](C)c1cccc2ccccc12` [Jun9-87-2], the “SARS-CoV-2 PL^pro inhibition, in words” value was “highly potent”.

As for `CC(C)c1ccccc1N(C)Cc1cc(O)ccc1Cl` [Jun9-29-3], the IC50 is > 20 µM.

Take `CC(C1CCCCC1)N(C)Cc1cc(O)ccc1Cl` (stereo not shown) [Jun9-13-6]: the IC50 was > 20 µM.

For the compound `C[C@H](c1cccc2ccccc12)N(C)Cc1ccc(-n2cccc2)cc1` [ZX-136-4], the IC50 is > 20 µM.

Turning to `Cc1ccc(N)cc1CN(C)[C@H](C)c1cccc2ccccc12` [Jun9-53-2], the “SARS-CoV-2 PL^pro inhibition, in words” value is “highly potent”.

As for `C[C@H](c1cccc2ccccc12)N(C)Cc1n[nH]c2cccc(O)c12` [Jun9-86-7], the 50% inhibitory concentration (IC50) is > 20 µM.

Take `C[C@H](c1cccc2ccccc12)N(C)Cc1ccnc(O)c1` [Jun9-84-6]: the half-inhibitory concentration (IC50) was > 20 µM.

As to `Cc1ccc(S(N)(=O)=O)cc1C(=O)N(C)C(C)c1ccc(Cl)c2ccccc12` (stereo not shown) [Jun 10-69-2], the “SARS-CoV-2 PL^pro inhibition, in words” value is reported as “highly potent”.

Take `C[C@H](c1cccc2ccccc12)N(C)Cc1ccc(O)cc1` [Jun9-44-3]: the “SARS-CoV-2 PL^pro inhibition, in words” value is on record as “highly potent”.

The data set is the same for the next values; noted with them: FRET assay; read-out: SARS-CoV-2 PL^pro IC50.
Consider `CC(C1CC(F)CCC1F)N(C)Cc1cc(O)ccc1Cl` (stereo not shown) [Jun9-29-5], for which the half-inhibitory concentration (IC50) is > 20 µM.

`COc1ccc(Cl)c(CN(C)[C@H](C)c2ccccc2C)c1` [Jun9-25-4]: the IC50 is 49.3 µM.

Consider `Cc1ccc(O)cc1C(=O)N[C@H](C)c1cccc2ccccc12` [Jun9-47-3], for which the IC50 is 2.44 µM.

`C[C@H](c1cccc2ccccc12)N(C)Cc1cncn1C` [ZX-136-5]: the 50% inhibitory concentration (IC50) came out at 8.32 µM.

Take `Cc1ccc(C(C)N(C)Cc2cc(O)ccc2Cl)cc1` (stereo not shown) [Jun9-13-8]: the IC50 was found to be 71.8 µM.

Turning to `C[C@H](c1cccc2ccccc12)N(C)Cc1cccnc1` [ZX-136-2], the IC50 was determined as 9.29 µM.

In the case of `C[C@H](c1cccc2ccccc12)N(C)Cc1cc(O)ccc1Cl` [Jun9-28-6], the concentration for half-maximal inhibition (IC50) was 2.66 µM.

As to `C[C@H](c1cccc2ccccc12)N(C)Cc1ccc2cccc(O)c2c1` [Jun9-85-8], the half-inhibitory concentration (IC50) was > 20 µM.

As for `C[C@H](c1cccc2ccccc12)N(C)Cc1ccc2c(c1)COC2=O` [Jun9-85-7], the 50% inhibitory concentration (IC50) was found to be 6.41 µM.

Turning to `C[C@H](c1cccc2ccccc12)N(C)Cc1ccc(OCC(N)=O)nc1` [Jun9-85-4], the IC50 was 2.84 µM.

In the case of `C[C@@H](NC(=O)c1cc(O)ccc1Cl)c1cccc2ccccc12` [Jun9-47-2], the 50% inhibitory concentration (IC50) came to 6.72 µM.

For the compound `C[C@H](c1cccc2ccccc12)N(C)Cc1cnc(N)cc1N` [Jun9-84-7], the IC50 is 5.62 µM.

Turning to `CC(c1ccccc1F)N(C)Cc1cc(O)ccc1Cl` (stereo not shown) [Jun9-29-7], the half-inhibitory concentration (IC50) is 42.9 µM.

On to `C[C@H](c1cccc2ccccc12)N(C)Cc1cnc2c(O)cccn12` [ZX-136-10], for which the IC50 worked out at 14.3 µM.

As to `C[C@H](c1cccc2ccccc12)N(C)Cc1ccc2c(c1)NC(=O)CO2` [Jun9-86-3], the IC50 is 7.01 µM.

Regarding `C[C@H](c1cccc2ccccc12)N(C)Cc1cc(N)ccc1Cl` [Jun9-53-1], the IC50 stood at 2.71 µM.

On to `CC(c1cccc(O)c1)N(C)Cc1cc(O)ccc1Cl` (stereo not shown) [Jun9-29-6], for which the IC50 is 26.9 µM.

Take `C[C@H](c1cccc2ccccc12)N(C)Cc1cnn(C)c1` [ZX-136-3]: the IC50 is 10.1 µM.

On to `Cc1cc(O)cc(C)c1CN(C)[C@H](C)c1cccc2ccccc12` [Jun9-86-6], for which the concentration for half-maximal inhibition (IC50) turned out to be 0.37 µM.

With `C[C@H](c1cccc2ccccc12)N(C)C(=O)c1nccnc1N` [ZX-129], the 50% inhibitory concentration (IC50) is > 20 µM.

For the next data set, the target named is T1, M^pro (Severe acute respiratory syndrome coronavirus 2, UniProt P0DTD1).
T1 construct: the main protease (M^pro)
Description: biochemical.
Conditions: not given
Take `Cc1ccc(O)cc1C(=O)N[C@H](C)c1cccc2ccccc12` [Jun9-47-3]: the 50% inhibitory concentration (IC50) is > 20 µM.

On to `C[C@H](c1cccc2ccccc12)N(C)Cc1cc(O)ccc1Cl` [Jun9-28-6], for which the IC50 is > 20 µM.

On to `C[C@@H](NC(=O)c1cc(O)ccc1Cl)c1cccc2ccccc12` [Jun9-47-2], for which the IC50 was > 20 µM.

Take `C[C@H](c1cccc2ccccc12)N(C)Cc1cc(N)ccc1Cl` [Jun9-53-1]: the IC50 is > 20 µM.

Take `Cc1ccc(N)cc1CN(C)[C@H](C)c1cccc2ccccc12` [Jun9-53-2]: the IC50 is > 20 µM.

Turning to `C[C@H](c1cccc2ccccc12)N(C)C(=O)c1nccnc1N` [ZX-129], the IC50 is > 20 µM.

A further data set deals with SARS-CoV-2. As to the kind of experiment: SARS-CoV-2 antiviral assay in Caco2-hACE2 cells. It is filed as cell-based. The conditions noted are these: Severe acute respiratory syndrome coronavirus 2.
`Cc1ccc(N)cc1C(=O)N[C@H](C)c1cccc2ccccc12` [GRL0617, reference compound] yielded an EC50 of 25.1 µM.

In the case of `Cc1ccc(N)cc1CN(C)[C@H](C)c1cccc2ccccc12` [Jun9-53-2], a half-maximal effect (EC50) was put at 8.89 µM.

Turning to `C[C@H](c1cccc2ccccc12)N(C)Cc1ccc(O)cc1` [Jun9-44-3], a half-maximal response (EC50) required 8.32 µM.

Another data set has as its system SARS-CoV-2. Description: SARS-CoV-2 antiviral assay in Vero E6 cells. In kind it is cell-based. The settings on record: Severe acute respiratory syndrome coronavirus 2, Vero C1008.
Consider `Cc1ccc(N)cc1C(=O)N[C@H](C)c1cccc2ccccc12` [GRL0617, reference compound], for which the EC50 turned out to be 74.4 µM.

Take `Cc1ccc(N)cc1CN(C)[C@H](C)c1cccc2ccccc12` [Jun9-53-2]: the response was half-maximal at 25.2 µM (EC50).

On to `C[C@H](c1cccc2ccccc12)N(C)Cc1ccc(O)cc1` [Jun9-44-3], for which the midpoint of the response, the EC50, lay at 11.2 µM.

In another data set the test system is SARS-CoV-2. As to the kind of experiment: SARS-CoV-2 antiviral assay in Huh7-ACE2 cells. In kind it is cell-based. The conditions noted are these: Severe acute respiratory syndrome coronavirus 2.
`Cc1ccccc1[C@@H](C)N(C)Cc1cc(O)ccc1Cl` [Jun9-25-5] registered an EC50 of 3.1 µM.

With `C[C@H](c1cccc2ccccc12)N(C)Cc1cc(O)ccc1Cl` [Jun9-28-6], a half-maximal response (EC50) required 5.17 µM.

`Cc1ccc(N)cc1C(=O)N[C@H](C)c1cccc2ccccc12` [GRL0617, reference compound] yielded an EC50 of 20.2 µM.

System in a further data set: not listed separately
Description: in vitro. The conditions noted are these: African green monkey.
Compound `C[C@H](c1cccc2ccccc12)N(C)Cc1ccc(O)cc1Cl` [Jun9-87-3] came in with a CC50 of 26 µM.

For `Cc1cc(O)ccc1CN(C)[C@H](C)c1cccc2ccccc12` [Jun9-87-2], the CC50 is 61 µM.

System in a further data set: not listed separately
Description: Cytotoxicity in Calu-3 cells. The settings on record: human.
Compound `C[C@H](c1cccc2ccccc12)N(C)Cc1ccc(O)cc1` [Jun9-44-3] showed a CC50 of 27.7 µM.

System in the next data set: not listed separately
As to the kind of experiment: Cytotoxicity in Vero E6 cells. The settings on record: African green monkey.
As to `Cc1ccccc1[C@@H](C)N(C)Cc1cc(O)ccc1Cl` [Jun9-25-5], the CC50 worked out at 38.8 µM.

In turn, `Cc1ccc(N)cc1CN(C)[C@H](C)c1cccc2ccccc12` [Jun9-53-2] gave a CC50 of 25.7 µM.

As usually defined, the IC50 is the midpoint of a concentration-inhibition curve. The term EC50 denotes the concentration giving half of the maximal effect.

These data come from patent US20240325321A1, “COMPOSITIONS AND METHODS FOR INHIBITING PLpro PROTEASE ACTIVITY AND FOR PREVENTING AND TREATING SARS-CoV-2 INFECTION” (Arizona Board of Regents on Behalf of the University of …, priority 2022, published 2024).
